Measurements reported in ChEMBL document CHEMBL1944579, “Discovery of a potent and orally bioavailable benzolactam-derived inhibitor of Polo-like kinase 1 (MLN0905)” (J Med Chem, 2012).

Legend:
[1] = Drug uptake in tumor of nude mouse xenografted with human HT-29 cells at 50 mg/kg, po after 48 hrs; type: ADME, organism-based, Neoplasm; set-up: dose 50 mg/kg, route oral; conditions: read-out: Drug uptake
[2] = Drug uptake in tumor of nude mouse xenografted with human HT-29 cells at 50 mg/kg, po after 24 hrs; type: ADME, organism-based, Neoplasm; set-up: dose 50 mg/kg, route oral; conditions: read-out: Drug uptake
[3] = Drug uptake in tumor of nude mouse xenografted with human HT-29 cells at 50 mg/kg, po after 72 hrs; type: ADME, organism-based, Neoplasm; set-up: dose 50 mg/kg, route oral; conditions: read-out: Drug uptake
[4] = Volume of distribution at steady state in Sprague-Dawley rat at 1 mg/kg, iv; type: ADME, organism-based; set-up: dose 1 mg/kg, route intravenous; conditions: in vivo, read-out: Vdss
[5] = Oral bioavailability in nude NCR mouse at 12.5 mg/kg; type: ADME, organism-based; conditions: in vivo
[6] = Drug uptake in tumor of nude mouse xenografted with human HT-29 cells at 25 mg/kg, po after 48 hrs; type: ADME, organism-based, Neoplasm; set-up: dose 25 mg/kg, route oral; conditions: read-out: Drug uptake
[7] = Volume of distribution at steady state in nude NCR mouse at 2 mg/kg, iv; type: ADME, organism-based; set-up: dose 2 mg/kg, route intravenous; conditions: in vivo, read-out: Vdss
[8] = Drug uptake in tumor of nude mouse xenografted with human HT-29 cells at 25 mg/kg, po after 24 hrs; type: ADME, organism-based, Neoplasm; set-up: dose 25 mg/kg, route oral; conditions: read-out: Drug uptake
[9] = Drug uptake in tumor of nude mouse xenografted with human HT-29 cells at 6.25 mg/kg, po after 48 hrs; type: ADME, organism-based, Neoplasm; set-up: dose 6.25 mg/kg, route oral; conditions: read-out: Drug uptake
[10] = Oral bioavailability in Sprague-Dawley rat at 5 mg/kg; type: ADME, organism-based; conditions: in vivo
[11] = Drug uptake in tumor of nude mouse xenografted with human HT-29 cells at 6.25 mg/kg, po after 72 hrs; type: ADME, organism-based, Neoplasm; set-up: dose 6.25 mg/kg, route oral; conditions: read-out: Drug uptake
[12] = Drug uptake in tumor of nude mouse xenografted with human HT-29 cells at 12.5 mg/kg, po after 48 hrs; type: ADME, organism-based, Neoplasm; set-up: dose 12.5 mg/kg, route oral; conditions: read-out: Drug uptake
[13] = Half life in nude NCR mouse at 2 mg/kg, iv; type: ADME, organism-based; set-up: dose 2 mg/kg, route intravenous; conditions: in vivo
[14] = Toxicity in po dosed nude mouse administered qd for 3 days in a week; type: organism-based; conditions: in vivo
[15] = Drug uptake in tumor of nude mouse xenografted with human HT-29 cells at 6.25 mg/kg, po after 24 hrs; type: ADME, organism-based, Neoplasm; set-up: dose 6.25 mg/kg, route oral; conditions: read-out: Drug uptake
[16] = Drug uptake in tumor of nude mouse xenografted with human HT-29 cells at 12.5 mg/kg, po after 24 hrs; type: ADME, organism-based, Neoplasm; set-up: dose 12.5 mg/kg, route oral; conditions: read-out: Drug uptake
[17] = Cmax in Sprague-Dawley rat at 5 mg/kg, po; type: ADME, organism-based; set-up: dose 5 mg/kg, route oral; conditions: in vivo
[18] = Plasma clearance in nude NCR mouse at 2 mg/kg, iv; type: ADME, organism-based; set-up: dose 2 mg/kg, route intravenous
[19] = Drug uptake in tumor of nude mouse xenografted with human HT-29 cells at 25 mg/kg, po after 72 hrs; type: ADME, organism-based, Neoplasm; set-up: dose 25 mg/kg, route oral; conditions: read-out: Drug uptake
[20] = Drug uptake in tumor of nude mouse xenografted with human HT-29 cells at 12.5 mg/kg, po after 72 hrs; type: ADME, organism-based, Neoplasm; set-up: dose 12.5 mg/kg, route oral; conditions: read-out: Drug uptake
[21] = Toxicity in po dosed nude mouse administered once daily; type: organism-based; conditions: in vivo
[22] = Toxicity in po dosed nude mouse administered qd for 1 day in a week; type: organism-based; conditions: in vivo
[23] = Tmax in nude NCR mouse at 12.5 mg/kg, po; type: ADME, organism-based; set-up: dose 12.5 mg/kg, route oral; conditions: in vivo
[24] = Plasma clearance in Sprague-Dawley rat at 1 mg/kg, iv; type: ADME, organism-based; set-up: dose 1 mg/kg, route intravenous
[25] = Tmax in Sprague-Dawley rat at 5 mg/kg, po; type: ADME, organism-based; set-up: dose 5 mg/kg, route oral; conditions: in vivo
[26] = Cmax in nude NCR mouse at 12.5 mg/kg, po; type: ADME, organism-based; set-up: dose 12.5 mg/kg, route oral; conditions: in vivo
[27] = Half life in Sprague-Dawley rat at 1 mg/kg, iv; type: ADME, organism-based; set-up: dose 1 mg/kg, route intravenous; conditions: in vivo

Molecule Cc1ncc(CCCN(C)C)cc1Nc1ncc2c(n1)-c1ccc(Cl)cc1NC(=S)C2 has a concentration at 48 h [1] of 332 nM, a concentration at 24 h [2] of 1080 nM and a concentration at 72 h [3] of 60.3 nM.

In the case of Cc1ncc(CCCN(C)C)cc1Nc1ncc2c(n1)-c1ccc(C(F)(F)F)cc1NC(=S)C2, the Vd [4] is reported as 10.2 L/kg, the concentration at 48 h [1] is reported as 476 nM and the bioavailability [5] is reported as 45%. The concentration at 48 h [6] was 369 nM, the concentration at 24 h [2] was 1470 nM and the Vd [7] was 6.2 L/kg. It also gave a concentration at 24 h [8] of 920 nM, a concentration at 72 h [3] of 376 nM and a concentration at 48 h [9] of 121 nM. It also gave a bioavailability [10] of 72%, a concentration at 72 h [11] of 98 nM and a concentration at 48 h [12] of 353 nM. The half-life [13] was 3.4 h, the MTD at 72 h [14] was 25 mg/kg and the concentration at 24 h [15] was 239 nM. For the same molecule, the concentration at 24 h [16] was 339 nM, the Cmax [17] was 335 nM and the clearance [18] was 41.7 mL/min/kg. The concentration at 72 h [19] was 163 nM, the concentration at 72 h [20] was 139 nM and the MTD [21] was 12.5 mg/kg. The MTD at 24 h [22] was 50 mg/kg, the Tmax [23] was 4 h and the clearance [24] was 38.3 mL/min/kg. For the same molecule, the Tmax [25] was 4 h, the Cmax [26] was 720 nM and the half-life [27] was 4.7 h.
